Reference: publication PMC4809247 (Journal of medicinal chemistry, 2015)

Key:
[1] = Intrinsic clearance in rat liver microsomes; type: in vitro ADME; settings: predicted hepatic clearance based on intrinsic clearance in rat liver microsomes
rat mGlu3 [2] = target: T1, rat mGlu3 (Rattus norvegicus, UniProt P31422); settings: calcium mobilization; average of n ≥ 3
rat mGlu5 [3] = target: T2, rat mGlu5 (Rattus norvegicus, UniProt P31424); assay: Calcium mobilization mGlu5 assay; type: cell-based; settings: for mGlu5 pEC50 (± SEM): calcium mobilization, average of n ≥ 3 (n = 2 where marked)
T2 sequence (P31424 21-1203): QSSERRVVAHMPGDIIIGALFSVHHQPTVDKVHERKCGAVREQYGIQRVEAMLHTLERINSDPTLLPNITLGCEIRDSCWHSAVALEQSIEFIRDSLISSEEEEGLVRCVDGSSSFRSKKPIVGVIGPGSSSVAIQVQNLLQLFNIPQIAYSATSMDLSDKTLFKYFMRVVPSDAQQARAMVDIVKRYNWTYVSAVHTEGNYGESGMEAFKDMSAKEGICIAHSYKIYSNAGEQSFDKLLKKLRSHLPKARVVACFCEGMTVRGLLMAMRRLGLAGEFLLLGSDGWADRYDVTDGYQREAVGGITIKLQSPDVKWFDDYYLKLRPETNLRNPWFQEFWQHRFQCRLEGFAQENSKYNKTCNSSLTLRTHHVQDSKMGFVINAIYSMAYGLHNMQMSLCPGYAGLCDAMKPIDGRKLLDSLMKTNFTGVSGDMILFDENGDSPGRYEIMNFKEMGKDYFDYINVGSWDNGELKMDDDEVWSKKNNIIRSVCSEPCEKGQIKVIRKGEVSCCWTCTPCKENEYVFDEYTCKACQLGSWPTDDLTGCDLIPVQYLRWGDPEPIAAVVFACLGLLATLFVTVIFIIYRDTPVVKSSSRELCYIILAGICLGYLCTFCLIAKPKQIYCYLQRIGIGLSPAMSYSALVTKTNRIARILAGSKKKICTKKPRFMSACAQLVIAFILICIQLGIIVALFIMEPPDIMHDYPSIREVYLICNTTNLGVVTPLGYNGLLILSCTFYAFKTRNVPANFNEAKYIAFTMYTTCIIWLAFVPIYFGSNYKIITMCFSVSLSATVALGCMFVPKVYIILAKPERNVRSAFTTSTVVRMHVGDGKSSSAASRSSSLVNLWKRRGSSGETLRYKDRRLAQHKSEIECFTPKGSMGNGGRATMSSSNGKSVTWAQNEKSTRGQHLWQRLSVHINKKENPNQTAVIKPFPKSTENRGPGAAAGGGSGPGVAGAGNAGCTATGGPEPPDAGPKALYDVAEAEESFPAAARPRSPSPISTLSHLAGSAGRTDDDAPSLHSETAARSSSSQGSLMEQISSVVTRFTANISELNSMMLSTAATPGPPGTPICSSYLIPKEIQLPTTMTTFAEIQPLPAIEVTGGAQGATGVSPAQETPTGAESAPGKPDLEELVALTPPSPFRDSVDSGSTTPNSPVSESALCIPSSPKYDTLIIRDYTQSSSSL

other mGlus = type: cell-based; settings: 10 μM compound, fold-shift experiments
immobility time [4] = assay: Forced swim test; type: in vivo, rat; settings: 56.6 mg/kg (highest dose); male Sprague–Dawley rats; 30 min pretreatment; 6 min session; p < 0.05 vs vehicle
[5] = Mouse IP single time point tissue distribution; settings: in vivo, 10 mg/kg, plasma concentration, 30 min post dose, n = 3
marble burying [6] = assay: Marble burying assay in mice; settings: 56.6 mg/kg; male CD-1 mice; 15 min pretreatment
5-HT2B = 5-HT2B (Homo sapiens, UniProt P41595); assay: 5-HT2B functional cell-based assay; settings: agonist or antagonist
Chain of 5-HT2B (P41595 whole entry, species assumed): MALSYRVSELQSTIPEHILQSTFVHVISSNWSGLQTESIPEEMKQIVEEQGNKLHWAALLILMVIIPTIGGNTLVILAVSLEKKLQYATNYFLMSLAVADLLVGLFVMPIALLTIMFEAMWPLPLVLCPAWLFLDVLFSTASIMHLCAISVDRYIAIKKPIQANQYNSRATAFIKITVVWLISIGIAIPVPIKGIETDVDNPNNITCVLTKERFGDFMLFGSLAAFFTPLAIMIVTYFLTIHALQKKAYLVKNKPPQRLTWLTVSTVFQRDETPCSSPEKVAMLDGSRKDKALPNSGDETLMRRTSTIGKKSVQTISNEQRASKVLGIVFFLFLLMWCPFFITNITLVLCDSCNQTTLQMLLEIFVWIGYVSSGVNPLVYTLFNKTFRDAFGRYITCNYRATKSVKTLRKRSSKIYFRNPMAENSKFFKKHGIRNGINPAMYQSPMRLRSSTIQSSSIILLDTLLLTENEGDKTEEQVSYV

[7] = system: panel of 68 clinically relevant GPCRs, ion channels, kinases, and transporters; type: binding; settings: 10 μM; 68 targets
Mouse IP PK time course = type: in vivo; settings: 10 mg/kg dose in marble burying study, estimated from DMPK data
rat mGlu2 [8] = target: T3, rat mGlu2 (Rattus norvegicus, UniProt P31421); assay: mGlu2 calcium mobilization assay; type: cell-based; settings: full CRC
T3 sequence (P31421 19-872): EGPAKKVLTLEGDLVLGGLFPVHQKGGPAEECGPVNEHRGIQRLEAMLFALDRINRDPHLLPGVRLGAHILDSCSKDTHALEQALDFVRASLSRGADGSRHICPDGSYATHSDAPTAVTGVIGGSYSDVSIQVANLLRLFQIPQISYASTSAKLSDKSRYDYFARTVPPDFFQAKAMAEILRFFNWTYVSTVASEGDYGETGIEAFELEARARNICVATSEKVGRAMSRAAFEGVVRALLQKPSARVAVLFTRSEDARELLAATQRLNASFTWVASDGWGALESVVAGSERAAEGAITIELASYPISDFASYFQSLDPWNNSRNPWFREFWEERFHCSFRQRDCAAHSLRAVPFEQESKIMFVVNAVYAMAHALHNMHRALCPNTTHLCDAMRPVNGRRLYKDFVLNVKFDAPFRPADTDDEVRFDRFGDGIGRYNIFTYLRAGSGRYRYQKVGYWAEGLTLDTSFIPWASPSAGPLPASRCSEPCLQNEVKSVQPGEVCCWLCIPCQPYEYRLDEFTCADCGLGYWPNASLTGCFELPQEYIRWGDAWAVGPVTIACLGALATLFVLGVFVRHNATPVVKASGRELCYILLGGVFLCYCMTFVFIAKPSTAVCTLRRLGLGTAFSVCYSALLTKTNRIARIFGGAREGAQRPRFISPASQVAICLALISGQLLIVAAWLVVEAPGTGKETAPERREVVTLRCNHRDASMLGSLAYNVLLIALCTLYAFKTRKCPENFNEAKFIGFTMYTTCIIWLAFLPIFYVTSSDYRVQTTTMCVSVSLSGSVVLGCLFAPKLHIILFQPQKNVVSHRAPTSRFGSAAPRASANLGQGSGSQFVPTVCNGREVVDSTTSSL

[9] = Rat cassette PK study, IV dosing; settings: in vivo, 0.2 mg/kg
marble burying [10] = settings: cited from earlier work
immobility time [11] = settings: cited from earlier work
rat mGlu3 [12] = target: T1, rat mGlu3; assay: cell-based
mGlu3 = mGlu3 (Rattus norvegicus, UniProt P31422); settings: multiple concentrations of compound
Chain of mGlu3 (P31422 23-879): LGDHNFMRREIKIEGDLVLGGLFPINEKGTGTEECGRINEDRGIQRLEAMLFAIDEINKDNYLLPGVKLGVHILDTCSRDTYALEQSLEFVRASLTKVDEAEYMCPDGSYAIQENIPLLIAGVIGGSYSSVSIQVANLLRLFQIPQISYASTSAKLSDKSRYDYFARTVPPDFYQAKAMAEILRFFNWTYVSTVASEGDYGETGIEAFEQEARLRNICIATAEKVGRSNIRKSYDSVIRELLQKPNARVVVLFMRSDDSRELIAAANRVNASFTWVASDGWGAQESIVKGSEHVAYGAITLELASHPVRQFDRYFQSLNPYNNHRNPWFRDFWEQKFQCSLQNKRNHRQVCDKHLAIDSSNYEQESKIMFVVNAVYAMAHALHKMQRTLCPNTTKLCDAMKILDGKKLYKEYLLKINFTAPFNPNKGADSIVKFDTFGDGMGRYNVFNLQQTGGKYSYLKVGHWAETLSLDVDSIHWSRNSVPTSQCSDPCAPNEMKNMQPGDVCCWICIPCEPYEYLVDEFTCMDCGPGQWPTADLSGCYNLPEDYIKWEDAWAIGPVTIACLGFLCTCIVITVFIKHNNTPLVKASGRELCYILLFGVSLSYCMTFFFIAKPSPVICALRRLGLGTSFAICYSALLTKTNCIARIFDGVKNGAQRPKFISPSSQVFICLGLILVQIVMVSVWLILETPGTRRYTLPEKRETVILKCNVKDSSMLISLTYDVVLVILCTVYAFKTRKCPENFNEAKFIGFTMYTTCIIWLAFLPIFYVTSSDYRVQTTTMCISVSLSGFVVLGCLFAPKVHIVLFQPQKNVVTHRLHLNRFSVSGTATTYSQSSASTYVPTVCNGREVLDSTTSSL

rat mGlu2 [13] = target: T3, rat mGlu2; settings: cited from earlier work
rat mGlu5 [14] = target: T2, rat mGlu5; settings: cited from earlier work

T1 sequence (P31422 23-879): as above

Row | Compound | rat CLhep [1] | mGlu3 pIC50 (± SEM) (rat mGlu3 [2]) | mGlu5 pEC50 (± SEM) (rat mGlu5 [3]) | other results
1 | C[C@@H]1CN(c2cccc(F)c2)C(=O)c2cc(COc3ccc(F)cn3)nn21 [Compound 56] | 53.0 mL/min/kg | 6.72 ± 0.08 |  | 
2 | C[C@@H]1CN(c2cncc(C#N)c2)C(=O)c2cc(COc3ccc(Cl)cn3)nn21 [Compound 109] | 22.8 mL/min/kg | 6.22 ± 0.01 | <4.5 | 
3 | C[C@@H]1CN(c2ccccc2Cl)C(=O)c2cc(COc3ccc(F)cn3)nn21 [Compound 57] | 66.5 mL/min/kg | 6.85 ± 0.16 |  | 
4 | C[C@@H]1CN(c2cccnc2F)C(=O)c2cc(COc3ccc(Cl)cn3)nn21 [Compound 106, (R)-2-(((5-Chloropyridin-2-yl)oxy)methyl)-5-(2-fluoropyridin-3-yl)-7-methyl-6,7-dihydropyrazolo[1,5-a]pyrazin-4(5H)-one] |  | 6.41 ± 0.05 | <4.5 | effect on the orthosteric agonist CRC, other mGlus (other mGlus): No significant effect; decrease in immobility time in FST (immobility time [4]): significant effects in decreasing immobility time; concentration at 30 min [5]: 2590 ± 290 nM; inhibition of marble burying at highest dose (marble burying [6]): essentially complete inhibition; 5-HT2B functional activity: no activity up to (5-HT2B): > 10 µM; significant responses (>50% inhibition of radioligand binding) in panel [7]: only a single significant response; estimated peak CNS unbound exposure (Mouse IP PK time course): 564 nM; mGlu2: inactive up to the top concentration tested (rat mGlu2 [8]): > 30 µM
5 | C[C@@H]1CN(c2ccc(F)cc2)C(=O)c2cc(COc3ccc(Cl)cn3)nn21 [Compound 48] |  |  |  | half-life [9]: ~2 h
6 | C[C@@H]1CN(c2cccc(F)c2F)C(=O)c2cc(COc3ccc(F)cn3)nn21 [Compound 66] | 63.6 mL/min/kg | 6.73 ± 0.16 |  | 
7 | C[C@@H]1CN(c2cccnc2)C(=O)c2cc(COc3ccc(Cl)cn3)nn21 [Compound 101] | 42.0 mL/min/kg | 6.22 ± 0.10 | <4.5 | 
8 | C[C@@H]1CN(c2ccccn2)C(=O)c2cc(COc3ccc(Cl)cn3)nn21 [Compound 100] | 69.5 mL/min/kg | 6.48 ± 0.07 | <4.5 | 
9 | C[C@@H]1CN(c2cccc(Cl)c2)C(=O)c2cc(COc3ccc(F)cn3)nn21 [Compound 58] | 51.9 mL/min/kg |  |  | 
10 | N[C@](CC1c2ccccc2Oc2ccccc21)(C(=O)O)[C@H]1C[C@@H]1C(=O)O [Compound 1] |  |  |  | inhibition of marble burying (marble burying [10]): previously shown to inhibit marble burying; efficacy in FST (immobility time [11]): efficacy
11 | C[C@@H]1CN(c2cncc(F)c2)C(=O)c2cc(COc3ccc(Cl)cn3)nn21 [Compound 108] | 26.6 mL/min/kg |  | <4.5 | 
12 | C[C@@H]1CN(c2cc(F)cc(C#N)c2)C(=O)c2cc(COc3ccc(Cl)cn3)nn21 [Compound 99] | 47.7 mL/min/kg |  |  | IC50 (rat mGlu3 [12]): 529 nM; half-life [9]: > 3 h
13 | N#Cc1cc(C2=Nc3ccc(Br)cc3NC(=O)C2)ccn1 [Compound 111] |  |  |  | effect on the glutamate CRC (progressive fold-shift) (mGlu3): characteristic rightward shift and depressed glutamate maximum
14 | C[C@@H]1CN(c2cc(F)ccc2F)C(=O)c2cc(COc3ccc(F)cn3)nn21 [Compound 67] | 49.6 mL/min/kg |  |  | 
15 | C[C@@H]1CN(c2ccc(F)cc2)C(=O)c2cc(COc3ccccn3)nn21 [Compound 10] |  |  |  | mGlu2: inactive up to the top concentration tested (rat mGlu2 [8]): > 30 µM
16 | Cc1cccc(N2C[C@@H](C)n3nc(COc4ccc(F)cn4)cc3C2=O)c1 [Compound 61] | 58.4 mL/min/kg | 6.67 ± 0.15 |  | 
17 | C[C@@H]1CN(c2c(F)cccc2F)C(=O)c2cc(COc3ccc(F)cn3)nn21 [Compound 68] | 64.6 mL/min/kg |  |  | 
18 | C[C@@H]1CN(c2ccc(F)cc2)C(=O)c2cc(COc3ccc(F)cc3)nn21 [Compound 24] |  | 6.34 ± 0.04 | 7.03 ± 0.05 | half-life [9]: > 1.5 h
19 | C[C@@H]1CN(c2cnccc2F)C(=O)c2cc(COc3ccc(Cl)cn3)nn21 [Compound 107] | 36.0 mL/min/kg | 6.32 ± 0.03 | <4.5 | 
20 | N[C@]1(C(=O)O)[C@H]2[C@@H](C[C@H]1OCc1ccc(Cl)c(Cl)c1)[C@]2(F)C(=O)O [Compound 2] |  |  |  | inhibition of marble burying (marble burying [10]): previously shown to inhibit marble burying; efficacy in FST (immobility time [11]): efficacy
21 | COc1ccc(C#Cc2ccc(C(=O)N3CCC[C@@H](CO)C3)cc2)cc1 [Compound 7] |  |  |  | selectivity versus mGlu2 (rat mGlu2 [13]): > 15 fold
22 | C[C@@H]1CN(c2ccccc2F)C(=O)c2cc(COc3ccc(F)cn3)nn21 [Compound 55] | 64.7 mL/min/kg |  |  | 
23 | C[C@@H]1CN(c2ccc(F)cc2)C(=O)c2cc(COc3ccccc3)nn21 [Compound 18] |  | 6.57 ± 0.15 | 7.34 ± 0.02 | fold preference for mGlu5 vs mGlu3 activity (rat mGlu5 [3]): ~6 fold
24 | C[C@@H]1CN(c2ccc(F)cc2)C(=O)c2cc(COc3cccc(F)c3)nn21 [Compound 23] |  | 6.11 ± 0.03 | 7.14 ± 0.02 | 
25 | COc1ccc(C#Cc2ccc(C(=O)N3CCC[C@@H](O)C3)c(F)c2)cc1 [Compound 8] |  |  |  | mGlu5 activity (rat mGlu5 [14]): devoid of both mGlu2 and mGlu5 activity; mGlu2 activity (rat mGlu2 [13]): devoid of both mGlu2 and mGlu5 activity
